Patent US20130225609A1, “COMBINATIONS OF MEDICAMENTS, CONTAINING PDE4-INHIBITORS AND EP4-RECEPTOR-ANTAGONISTS” (BOEHRINGER INGELHEIM INTERNATIONAL GMBH, priority 2010, published 2013)

Key:
[1] = Experiment 4: EP2-preferential antagonist AH6809 and roflumilast-mediated side effects in rats; format: in vivo, male Wistar rats; details: four days
Method: Six male Wistar rats were given a daily dosage of 10 mg/kg AH-6809 (preferential EP2 antagonist) at 1300 hours. Six male Wistar rats were given a daily dosage of 10 mg/kg Roflumilast (PDE4 inhibitor) at 1300 hours.

[2] = Experiment 2: Lumiracoxib (COX-2 selective) / SC-560 (COX-1 selective) and roflumilast-mediated side effects in rats; format: in vivo, male Wistar rats; details: four days
Description: Six male Wistar rats were given a daily dosage of 0.5%
For pharmacokinetic analysis (determining plasma levels of the substances) one rat from each group was used on day 4; these rats were no longer available for the investigation of other parameters.

[3] = Experiment 3: EP4 antagonist MF498 and roflumilast-mediated side effects in rats; format: in vivo, male Wistar rats; details: four days
Method: Six male Wistar rats were given a daily dosage of 0.5% Natrosol (Placebo) at 1300 hours.
Six male Wistar rats were given a daily dosage of 20 mg/kg MF-498 (EP4 antagonist) in each case at 1300 hours.
Six male Wistar rats were given a daily dosage of 10 mg/kg Roflumilast (PDE4 inhibitor) at 1300 hours.

[4] = Experiment 1: diclofenac and roflumilast-mediated side effects in rats
Method: Six male Wistar rats in each group were treated for four days with the following substances (all substances are given p.o.=orally):
Group 1 (“Control Group”):
Six male Wistar rats were given a daily dose of 0.5% Natrosol (placebo) at the times 0800, 1300 and 1700 hours.
Group 2 (“Diclofenac Group”):
Six male Wistar rats were given a daily dose of 1 mg/kg of diclofenac (NSAID) at the times 0800 and 1700 hours and 0.5% Natrosol (placebo) at 1300 hours.
Group 3 (“Roflumilast Group”):
Six male Wistar rats were given a daily dose of 0.5% Natrosol (placebo) at 0800 and 1700 hours and 10 mg/kg roflumilast (PDE4 inhibitor) at 1300 hours.
Group 4 (“Roflumilast+Diclofenac Group”):
Six male Wistar rats were given a daily dose of 1 mg/kg diclofenac (NSAID) at the times 0800 and 1700 hours and 10 mg/kg roflumilast (PDE4 inhibitor) at 1300 hours.
For pharmacokinetic analysis (determining the plasma levels of the substances) on day 4 one rat from each group was used; these rats were no longer available for other parameters under investigation.
During the experiment the body weights of the animals were determined and the differences in the body weights of the rats from the different groups towards the end of the experiment were shown as a percentage change from the time of the first administration (=day 1, 0800 hours (=time t0)). The average±standard deviation of the body weights at time t0 was 355±17 g.
At the end of the experiment (day 5, 95 hours after t0 (=the time of the first administration on day 1, 0800)) the proportion of neutrophils (in % of white blood cells, FIG. 2) were determined from the blood of 4 or 5 of the rats from the individual groups. In addition, the weights of the animals' spleens were measured and the mesenteries were dissected for histopathological investigation for vasculitis (multifocal perivascular mononuclear/polymorphonuclear infiltration).

[5] = 10 mg/kg p.o. + 10 mg/kg roflumilast p.o. at 1300 hours
[6] = 2 mg/kg p.o. at 0800 and 1700 hours + 10 mg/kg roflumilast p.o. at 1300 hours
[7] = 20 mg/kg p.o. + 10 mg/kg roflumilast p.o. at 1300 hours
[8] = Roflumilast group: 10 mg/kg roflumilast p.o. daily
[9] = 1 mg/kg p.o. at 0800 and 1700 hours + 10 mg/kg roflumilast p.o. at 1300 hours, four days

Compound: CC(C)Oc1ccc2c(=O)c3cc(C(=O)O)ccc3oc2c1 [AH6809, 6-isopropoxy-9-oxoxanthene-2-carboxylic acid]
- effect of co-administration on roflumilast-mediated loss of body weight (FIG. 13) [1, 5]: no indications that the EP2 preferential receptor antagonist AH-809 had any influence
- effect of co-administration on roflumilast-mediated loss of spleen weight (FIG. 14) [1, 5]: no indications that the EP2 preferential receptor antagonist AH-809 had any influence
- effect of co-administration on roflumilast-mediated mesenteric vasculitis (FIG. 16) [1, 5]: no indications that the EP2 preferential receptor antagonist AH-809 had any influence
- effect of co-administration on roflumilast-mediated neutrophilia (FIG. 15) [1, 5]: no indications that the EP2 preferential receptor antagonist AH-809 had any influence
- effect of EP2 blockage on the parameters measured (roflumilast-mediated side effects, overall) ([1]; 10 mg/kg p.o. + 10 mg/kg roflumilast p.o.): shows no effect on the parameters measured
- parameters measured after administration on its own (body weight, spleen weight, neutrophils, vasculitis) ([1]; 10 mg/kg p.o. daily, without roflumilast): very similar to the control group

Compound: Cc1ccc(Nc2c(F)cccc2Cl)c(CC(=O)O)c1 [Lumiracoxib]
- effect of co-administration on roflumilast-mediated loss of body weight (FIG. 5) [2, 6]: substantially reduced or prevented
- effect of co-administration on roflumilast-mediated loss of spleen weight (FIG. 6) [2, 6]: substantially reduced or prevented
- effect of co-administration on roflumilast-mediated mesenteric vasculitis (FIG. 8) [2, 6]: substantially reduced or prevented
- effect of co-administration on roflumilast-mediated neutrophilia (FIG. 7) [2, 6]: substantially reduced or prevented
- parameters measured after administration on its own (body weight, spleen weight, neutrophils, vasculitis) ([2]; 2 mg/kg p.o. at 0800 and 1700 hours, without roflumilast): very similar to the control groups

Compound: CCOc1c2c(c(OCC)c3ncccc13)CN(c1ccc(CS(=O)(=O)NC(=O)Cc3ccccc3OC)cc1C)C2=O [MF-498, N-{[4-(5,9-diethoxy-6-oxo-6,8-dihydro-7H-pyrrolo[3,4-g]quinolin-7-yl)-3-methylbenzyl]sulphonyl}-2-(2-methoxyphenyl)acetamide]
- effect of co-administration on roflumilast-mediated loss of body weight (FIG. 9) [3, 7]: substantially reduced
- effect of co-administration on roflumilast-mediated loss of spleen weight (FIG. 10) [3, 7]: substantially reduced
- effect of co-administration on roflumilast-mediated mesenteric vasculitis (FIG. 12) [3, 7]: substantially reduced
- effect of co-administration on roflumilast-mediated neutrophilia (FIG. 11) [3, 7]: substantially reduced
- differences in the weight of the spleen between the Roflumilast group and the Roflumilast+MF-498 group (statistics) ([3]; 20 mg/kg p.o. + 10 mg/kg roflumilast p.o., two-way analysis of variance): do not achieve statistical significance
- parameters measured after administration on its own (body weight, spleen weight, neutrophils, vasculitis) ([3]; 20 mg/kg p.o. daily, without roflumilast): very similar to the control group

Compound: O=C(Nc1c(Cl)cncc1Cl)c1ccc(OC(F)F)c(OCC2CC2)c1 [Roflumilast]
- death of animals ([4]; Roflumilast group: 10 mg/kg p.o. daily, six rats per group): one rat from the roflumilast group which died between day 4 and day 5
- loss of body weight (FIG. 13) [1, 8]: observed
- loss of spleen weight (FIG. 14) [1, 8]: observed
- mesenteric vasculitis (monocyte/polymorphonuclear perivascular infiltration in the mesentery, FIG. 16) [1, 8]: observed
- neutrophilia (FIG. 15) [1, 8]: observed
- loss of body weight (FIG. 9) [3, 8]: observed
- loss of spleen weight (FIG. 10) [3, 8]: observed
- mesenteric vasculitis (monocyte/polymorphonuclear perivascular infiltration into the mesentery, FIG. 12) [3, 8]: observed
- neutrophilia (FIG. 11) [3, 8]: observed
- loss of body weight (FIG. 5) [2, 8]: observed
- loss of spleen weight (FIG. 6) [2, 8]: observed
- mesenteric vasculitis (monocyte/polymorphonuclear perivascular infiltration into the mesentery, FIG. 8) [2, 8]: observed
- neutrophilia (FIG. 7) [2, 8]: observed

Compound: O=C(O)Cc1ccccc1Nc1c(Cl)cccc1Cl [diclofenac]
- effect of co-administration on roflumilast-mediated loss of body weight (FIG. 1) [4, 9]: substantially reduced or prevented
- effect of co-administration on roflumilast-mediated loss of spleen weight (FIG. 2) [4, 9]: substantially reduced or prevented
- effect of co-administration on roflumilast-mediated mesenteric vasculitis (FIG. 4) [4, 9]: substantially reduced or prevented
- effect of co-administration on roflumilast-mediated neutrophilia (FIG. 3) [4, 9]: substantially reduced or prevented
- parameters measured after administration on its own (body weight, spleen weight, neutrophils, vasculitis) ([4]; 1 mg/kg p.o. at 0800 and 1700 hours, four days, without roflumilast): very similar to the control groups
